# Laboratory results taken from patent US12319696B2, “2,6-dimethyl-n-((pyridin-4-yl)methyl)imidazo[1,2-b]pyridazin-8-amine and 2,5-dimethyl-n-[(pyridin-4-yl)methyl]pyrazolo[1,5-a]pyrimidin-7-amine derivatives for treating viral infections” (CUROVIR AB, priority 2018, dated 2025).
# How the values were obtained:
# [1] = mice; cited from earlier work
# [2] = system: enterovirus strain 6; assay: microbe, parasite or virus in culture; format: cell-based; conditions: inhibition of viral CPE
# [3] = system: enterovirus strain 30; assay: Antiviral CPE inhibition assay in mammalian cell culture, EV30; format: cell-based; conditions: inhibition of viral CPE
# [4] = system: enterovirus D68; assay: Antiviral CPE inhibition assay in mammalian cell culture, EV-D68; format: cell-based; conditions: Enterovirus D, EVD68, inhibition of viral CPE
# [5] = system: enterovirus strain 71; assay: Antiviral CPE inhibition assay in mammalian cell culture, EV71; format: cell-based; conditions: inhibition of viral CPE
# [6] = system: coxsackie B virus strain 1; assay: Antiviral CPE inhibition assay in mammalian cell culture, Cox B1; format: cell-based
# [7] = system: coxsackie B virus strain 2; assay: Antiviral CPE inhibition assay in mammalian cell culture, Cox B2; format: cell-based
# [8] = system: coxsackie B virus strain 3; assay: Antiviral CPE inhibition assay in mammalian cell culture, Cox B3; format: cell-based
# [9] = system: coxsackie B virus strain 5; assay: Antiviral CPE inhibition assay in mammalian cell culture, Cox B5; format: cell-based
# [10] = system: polio virus strain 1; assay: organism not typed; format: cell-based
# [11] = target: T1, CYP3A4 (Homo sapiens, UniProt P08684); assay: In vitro CYP 3A4 enzyme inhibition in human liver microsomes by probe substrate method; format: in vitro ADME; conditions: human liver microsomes 0.5 mg/mL; probe substrate Midazolam 5 μM
# T1 construct: from tissue; host or cells: human liver microsomes
# Procedure: In Vitro CYP 3A4 Enzyme Inhibition Study in Human Liver Microsomes by Probe Substrate Method
# In vitro CYP3A4 enzyme inhibition assay was performed using Human liver microsomes at 0.5 mg/mL concentration. Ketoconazole was used as reference inhibitor and Midazolam was used as selective probe substrate for CYP 3A4 enzyme. Serial dilution of test/control items was prepared in potassium phosphate buffer (50 mM, pH 7.40) to obtain eight concentrations each in a 1:4 dilution pattern. The percentage of acetonitrile/DMSO was maintained at 2.5%/0.25% in 2.5× serially diluted control/test item solutions respectively. The final percentage of acetonitrile/DMSO was 1%/0.1% respectively. Intermediate solutions such as 10× working solution (5 mg/mL) of Human liver microsomal solution, 10× concentration of reference probe substrates in buffer, 5× concentrations of Cofactors (5.0 mM NADP+, 25.0 mM G-6-P, 3.0 IU/mL G-6-PDH and 10.0 mM MgCl2) were prepared in potassium phosphate buffer. The final concentration of liver microsomes in the reaction mixture was 0.5 mg/mL, cofactors was 1.0 mM NADP+, 5.0 mM G-6-P, 0.6 IU/mL G-6-PDH and 2.0 mM MgCl2. Midazolam was tested at 5 μM test concentration. 40 μL of 2.5× serially diluted test/control item solutions and 10 μL of […] liver microsomal solution were added to 96 well plate and incubated for 10 min at 37° C. with shaking condition (400 rpm) using Thermomixer. After pre incubation, 20 μL of potassium phosphate buffer, 10 μL of respective probe substrate working solution and 20 μL of cofactor mix was added.
# [12] = in vivo; parameters: species or system Sprague Dawley rats; conditions: male, Sprague Dawley, rat, po, 10 mg/kg
# Procedure: 10 mg of the compound was weighed and transferred to graduated tube. Then 500 μL of DMA (5% v/v) was added, vortex mixed thoroughly and sonicated till test item was completely dissolved. Then 5 mL of PEG 200 (50% v/v) were added, and vortex mixed thoroughly. Thereafter, Sterile Water for Injection (SWFI) was added in small increments and vortex mixed thoroughly. Finally, the volume was made up to 10 mL with SWFI (45% v/v) to obtain a clear solution with final formulation strength of 1 mg/mL. […] Formulation was freshly prepared before the administration to animals. Adult healthy male Sprague Dawley rats aged 8-10 weeks were used for experimentation after a minimum 3 days of acclimation. Fasted animals were administered with test compound in recommended vehicle (5% DMA+50% PEG 200+45% SWFI) by oral route at a dose of 10 mg/kg body weight and at dose volume of 10 mL/kg body weight. Under mild isoflurane anesthesia, blood specimens were collected into pre-labeled tubes containing anticoagulant (K2EDTA—2 mg/mL blood) at different time points post dose.
# [13] = Metabolic stability in human liver microsomes; format: in vitro ADME; conditions: 5 μM test item, 0.25 mg/mL microsomal protein
# Procedure: (§1) Metabolic stability assay was carried out using Human/Rat liver microsomes. […] Test item/Control items were incubated with Human/Rat liver microsomes with cofactors and without cofactors. The reaction mixture (100 μL) was removed at specified time period and the reaction was stopped by addition of stop solution. The samples were extracted in presence of internal standard and were analyzed using LC-MS/MS. The percent of the test/Control item remaining after specified incubation period was calculated with respect to the peak area ratio at time 0 min. […] The reaction mixture was incubated further at 37° C. for specified incubation time points (With Cofactors: 0, 15, 30, 60 and 120 min; Without Cofactors: 0 and 120 min). 100 μL incubation samples of test items and Control items at specified incubation time points were transferred to respective tubes for sample extraction. Test and Control item specimens were extracted by Protein precipitation method. A 100 μL incubation sample at each time point was added to tubes containing 200 μL of ice-cold acetonitrile and 50 μL Haloperidol solution (0.5 μg/mL). Then the tubes were vortex mixed thoroughly and centrifuged at 10000 rpm for 10 minutes at 4° C. A clear supernatant of 200 μL of samples were submitted for LC-MS/MS analysis.
# [14] = Metabolic stability in rat liver microsomes; format: in vitro ADME; conditions: 5 μM test item, 0.25 mg/mL microsomal protein
# Procedure: as §1
# [15] = Human plasma protein binding (Rapid Equilibrium Dialysis); format: in vitro ADME; conditions: pH 7.4, RED device, 37° C.
# Procedure: (§2) Plasma protein binding study was performed using a Rapid Equilibrium Dialysis (RED) device containing dialysis membrane with a molecular weight cut-off of 8,000 Daltons. Each dialysis insert contained two chambers. The red chamber was for the plasma while the white chamber was for the buffer. Test items and Control items (Warfarin and Propranolol) were prepared at a required test concentration of 10 μM in Human/Rat plasma (pH adjusted to 7.40) using 10 mM DMSO stocks (final DMSO concentration was 0.1%). 300 μL of plasma sample was added into the sample chamber. 500 μL of buffer was added into the buffer chamber. After sealing the RED device with an adhesive film, incubation was done at 37° C. with shaking at 300 rpm for 4 h. Following incubation, an aliquot of 50 μL was removed from each well (plasma and buffer side) and diluted with equal volume of opposite matrix to nullify the matrix effect and subjected for sample extraction.
# (§3) All samples were extracted by Protein Precipitation method by adding 200 μL of ice cold Acetonitrile and 50 μL of internal standard (Haloperidol at 0.1 μg/mL) solution. The tubes were vortex mixed thoroughly and centrifuged at 10000 rpm, 4° C. for 10 minutes. A clear supernatant of 200 μL of samples were submitted for LC-MS/MS analysis.
# [16] = Rat plasma protein binding (Rapid Equilibrium Dialysis); format: in vitro ADME; conditions: pH 7.4, RED device, 37° C.
# Procedure: as §2, §3
# T1 sequence (P08684 whole entry): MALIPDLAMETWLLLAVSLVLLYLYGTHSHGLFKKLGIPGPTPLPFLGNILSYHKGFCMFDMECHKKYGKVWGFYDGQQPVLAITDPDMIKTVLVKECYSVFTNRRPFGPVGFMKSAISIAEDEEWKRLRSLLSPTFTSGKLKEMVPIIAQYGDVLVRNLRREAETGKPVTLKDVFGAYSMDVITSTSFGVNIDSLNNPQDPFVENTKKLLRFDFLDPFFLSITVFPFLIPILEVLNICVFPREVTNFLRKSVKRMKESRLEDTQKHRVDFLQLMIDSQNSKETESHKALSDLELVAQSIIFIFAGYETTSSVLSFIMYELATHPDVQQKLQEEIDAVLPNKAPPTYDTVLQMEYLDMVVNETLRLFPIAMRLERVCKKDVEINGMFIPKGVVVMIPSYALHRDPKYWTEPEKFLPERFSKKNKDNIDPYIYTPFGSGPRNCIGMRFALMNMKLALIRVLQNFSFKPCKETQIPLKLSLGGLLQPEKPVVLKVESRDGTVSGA
smiles,measurement,setting,value
"COc1ccc(-c2c(C)nn3c(NCCN4CCOCC4)cc(C)nc23)cc1OC [T-00127-HEV1, 3-(3,4-dimethoxyphenyl)-2,5-dimethyl-N-(2-morpholinoethyl)pyrazolo[1,5-a]pyrimidin-7-amine]",mortality when tested in-vivo,[1],induced mortality in mice
"Cc1cc(NCc2ccncc2)n2nc(C)c(-c3ccc4c(c3)c(C)nn4C)c2n1 [Comp. Y, 3-(1,3-dimethyl-1H-indazol-5-yl)-2,5-dimethyl-N-[(pyridin-4-yl)methyl]pyrazolo[1,5-a]pyrimidin-7-amine, reference compound]",inhibition at 0.01 µM,"[2]; 10 nM, read-out: Inh. at 10 nM, EV6",100%
same,inhibition at 0.1 µM,"[2]; 100 nM, read-out: Inh. at 100 nM, EV6",100%
same,inhibition at 0.01 µM,"[3]; 10 nM, read-out: Inh. at 10 nM, EV30",100%
same,inhibition at 0.1 µM,"[3]; 100 nM, read-out: Inh. at 100 nM, EV30",100%
same,inhibition at 0.01 µM,"[4]; 10 nM, read-out: Inh. at 10 nM, EV-D68",85%
same,inhibition at 0.1 µM,"[4]; 100 nM, read-out: Inh. at 100 nM, EV-D68",80%
same,inhibition at 0.01 µM,"[5]; 10 nM, read-out: Inh. at 10 nM, EV71",87%
same,inhibition at 0.1 µM,"[5]; 100 nM, read-out: Inh. at 100 nM, EV71",86%
same,inhibition at 0.01 µM,"[6]; read-out: Inh. at 10 nM, Cox B1",100%
same,inhibition at 0.1 µM,"[6]; read-out: Inh. at 100 nM, Cox B1",100%
same,inhibition at 0.01 µM,"[7]; read-out: Inh. at 10 nM, Cox B2",100%
same,inhibition at 0.1 µM,"[7]; read-out: Inh. at 100 nM, Cox B2",100%
same,inhibition at 0.01 µM,"[8]; read-out: Inh. at 10 nM, Cox B3",100%
same,inhibition at 0.1 µM,"[8]; read-out: Inh. at 100 nM, Cox B3",100%
same,inhibition at 0.01 µM,"[9]; read-out: Inh. at 10 nM, Cox B5",85%
same,inhibition at 0.1 µM,"[9]; read-out: Inh. at 100 nM, Cox B5",100%
same,inhibition at 0.01 µM,"[10]; read-out: Inh. at 10 nM, Polio 1",100%
same,inhibition at 0.1 µM,"[10]; read-out: Inh. at 100 nM, Polio 1",100%
same,IC50,[11],280 nM
same,AUC(0-inf),[12],15500 ± 1900 ng·h/mL
same,AUC(0-t),[12],14800 ± 2600 ng·h/mL
same,AUCextrap,[12],4.6 ± 5.6%
same,Cmax,[12],2300 ± 300 ng/mL
same,MRT last,[12],4.4 ± 1.1 h
same,Tmax,[12],1.2 ± 0.8 h
same,half-life,[12],3.4 ± 1.2 h
same,"% remaining after incubation for 60 min, Human microsomes",[13],86.2%
same,"% remaining after incubation for 60 min, Rat microsomes",[14],89.7%
same,"fraction unbound at 4 h, 10 μM",[15],0.027
same,"fraction unbound at 4 h, 10 μM",[16],0.024
